Assay results published in PubChem BioAssay (NCI).
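Five compound concentrations were applied to cells in 96-well plates for 48 hours; endpoints were derived by simple linear interpolation of the resulting dose-response curve. TGI: concentration producing complete growth inhibition.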

Experiments:
Experiment in all cases: inhibition of tumour cell growth, NCI panel, 48 h
786-0 renal = tested on: 786-0 renal
A498 renal = tested on: A498 renal
A549 NSCLC = tested on: A549 NSCLC
ACHN renal = tested on: ACHN renal
CAKI-1 renal = tested on: CAKI-1 renal
CCRF-CEM leukemia = tested on: CCRF-CEM leukemia
COLO 205 colon = tested on: COLO 205 colon
DMS 114 small cell lung = tested on: DMS 114 small cell lung
DMS 273 small cell lung = tested on: DMS 273 small cell lung
EKVX NSCLC = tested on: EKVX NSCLC
HCC-2998 colon = tested on: HCC-2998 colon
HCT-116 colon = tested on: HCT-116 colon
HCT-15 colon = tested on: HCT-15 colon
HL-60(TB) leukemia = tested on: HL-60(TB) leukemia
HOP-62 NSCLC = tested on: HOP-62 NSCLC
HOP-92 NSCLC = tested on: HOP-92 NSCLC
HT29 colon = tested on: HT29 colon
IGROV1 ovarian = tested on: IGROV1 ovarian
K-562 leukemia = tested on: K-562 leukemia
KM12 colon = tested on: KM12 colon
KM20L2 colon = tested on: KM20L2 colon
LOX IMVI melanoma = tested on: LOX IMVI melanoma
LXFL 529 NSCLC = tested on: LXFL 529 NSCLC
M14 melanoma = tested on: M14 melanoma
M19-MEL melanoma = tested on: M19-MEL melanoma
MALME-3M melanoma = tested on: MALME-3M melanoma
MOLT-4 leukemia = tested on: MOLT-4 leukemia
NCI-H226 lung = tested on: NCI-H226 lung
NCI-H23 lung = tested on: NCI-H23 lung
NCI-H460 lung = tested on: NCI-H460 lung
NCI-H522 lung = tested on: NCI-H522 lung
OVCAR-3 ovarian = tested on: OVCAR-3 ovarian
OVCAR-4 ovarian = tested on: OVCAR-4 ovarian
OVCAR-5 ovarian = tested on: OVCAR-5 ovarian
OVCAR-8 ovarian = tested on: OVCAR-8 ovarian
RXF 393 renal = tested on: RXF 393 renal
RXF-631 renal = tested on: RXF-631 renal
SF-268 CNS = tested on: SF-268 CNS
SF-295 CNS = tested on: SF-295 CNS
SF-539 CNS = tested on: SF-539 CNS
SK-MEL-2 melanoma = tested on: SK-MEL-2 melanoma
SK-MEL-28 melanoma = tested on: SK-MEL-28 melanoma
SK-MEL-5 melanoma = tested on: SK-MEL-5 melanoma
SK-OV-3 ovarian = tested on: SK-OV-3 ovarian
SN12C renal = tested on: SN12C renal
SNB-19 CNS = tested on: SNB-19 CNS
SNB-75 CNS = tested on: SNB-75 CNS
SNB-78 CNS = tested on: SNB-78 CNS
SW-620 colon = tested on: SW-620 colon
TK-10 renal = tested on: TK-10 renal
U251 CNS = tested on: U251 CNS
UACC-257 melanoma = tested on: UACC-257 melanoma
UACC-62 melanoma = tested on: UACC-62 melanoma
UO-31 renal = tested on: UO-31 renal
DLD-1 colon = tested on: DLD-1 colon
RPMI-8226 leukemia = tested on: RPMI-8226 leukemia
SR leukemia = tested on: SR leukemia
XF 498 CNS = tested on: XF 498 CNS

## C#CC1(O)CC(c2ccccc2)N(C)C(c2ccccc2)C1 (stereo not drawn)
786-0 renal
  TGI: > 100 µM
A498 renal
  TGI: > 100 µM
A549 NSCLC
  TGI: > 100 µM
ACHN renal
  TGI: > 100 µM
CAKI-1 renal
  TGI: > 100 µM
CCRF-CEM leukemia
  TGI: > 100 µM
COLO 205 colon
  TGI: > 100 µM
DMS 114 small cell lung
  TGI: > 100 µM
DMS 273 small cell lung
  TGI: > 100 µM
EKVX NSCLC
  TGI: > 100 µM
HCC-2998 colon
  TGI: > 100 µM
HCT-116 colon
  TGI: 32.4 µM
HCT-15 colon
  TGI: > 100 µM
HL-60(TB) leukemia
  TGI: > 100 µM
HOP-62 NSCLC
  TGI: > 100 µM
HOP-92 NSCLC
  TGI: > 100 µM
HT29 colon
  TGI: > 100 µM
IGROV1 ovarian
  TGI: > 100 µM
K-562 leukemia
  TGI: > 100 µM
KM12 colon
  TGI: > 100 µM
KM20L2 colon
  TGI: > 100 µM
LOX IMVI melanoma
  TGI: > 100 µM
LXFL 529 NSCLC
  TGI: > 100 µM
M14 melanoma
  TGI: > 100 µM
M19-MEL melanoma
  TGI: > 100 µM
MALME-3M melanoma
  TGI: > 100 µM
MOLT-4 leukemia
  TGI: > 100 µM
NCI-H226 lung
  TGI: > 100 µM
NCI-H23 lung
  TGI: > 100 µM
NCI-H460 lung
  TGI: > 100 µM
NCI-H522 lung
  TGI: > 100 µM
OVCAR-3 ovarian
  TGI: > 100 µM
OVCAR-4 ovarian
  TGI: > 100 µM
OVCAR-5 ovarian
  TGI: > 100 µM
OVCAR-8 ovarian
  TGI: > 100 µM
RXF 393 renal
  TGI: > 100 µM
RXF-631 renal
  TGI: > 100 µM
SF-268 CNS
  TGI: > 100 µM
SF-295 CNS
  TGI: > 100 µM
SF-539 CNS
  TGI: > 100 µM
SK-MEL-2 melanoma
  TGI: > 100 µM
SK-MEL-28 melanoma
  TGI: > 100 µM
SK-MEL-5 melanoma
  TGI: > 100 µM
SK-OV-3 ovarian
  TGI: > 100 µM
SN12C renal
  TGI: > 100 µM
SNB-19 CNS
  TGI: > 100 µM
SNB-75 CNS
  TGI: > 100 µM
SNB-78 CNS
  TGI: > 100 µM
SW-620 colon
  TGI: > 100 µM
TK-10 renal
  TGI: > 100 µM
U251 CNS
  TGI: > 100 µM
UACC-257 melanoma
  TGI: > 100 µM
UACC-62 melanoma
  TGI: > 100 µM
UO-31 renal
  TGI: > 100 µM

## NC(C(=O)O)c1ccc(C(=O)O)cc1 (stereo not drawn)
786-0 renal
  TGI: > 100 µM
A549 NSCLC
  TGI: > 100 µM
ACHN renal
  TGI: > 100 µM
CAKI-1 renal
  TGI: > 100 µM
CCRF-CEM leukemia
  TGI: > 100 µM
COLO 205 colon
  TGI: > 100 µM
DLD-1 colon
  TGI: > 100 µM
DMS 114 small cell lung
  TGI: > 100 µM
EKVX NSCLC
  TGI: > 100 µM
HCC-2998 colon
  TGI: > 100 µM
HCT-15 colon
  TGI: > 100 µM
HL-60(TB) leukemia
  TGI: > 100 µM
HOP-62 NSCLC
  TGI: > 100 µM
HT29 colon
  TGI: > 100 µM
IGROV1 ovarian
  TGI: > 100 µM
K-562 leukemia
  TGI: > 100 µM
KM12 colon
  TGI: > 100 µM
KM20L2 colon
  TGI: > 100 µM
LOX IMVI melanoma
  TGI: > 100 µM
LXFL 529 NSCLC
  TGI: > 100 µM
M14 melanoma
  TGI: > 100 µM
M19-MEL melanoma
  TGI: > 100 µM
MALME-3M melanoma
  TGI: > 100 µM
MOLT-4 leukemia
  TGI: > 100 µM
NCI-H226 lung
  TGI: > 100 µM
NCI-H23 lung
  TGI: > 100 µM
NCI-H460 lung
  TGI: > 100 µM
NCI-H522 lung
  TGI: > 100 µM
OVCAR-3 ovarian
  TGI: > 100 µM
OVCAR-4 ovarian
  TGI: > 100 µM
OVCAR-5 ovarian
  TGI: > 100 µM
OVCAR-8 ovarian
  TGI: > 100 µM
RPMI-8226 leukemia
  TGI: > 100 µM
RXF 393 renal
  TGI: > 100 µM
RXF-631 renal
  TGI: > 100 µM
SF-268 CNS
  TGI: > 100 µM
SF-295 CNS
  TGI: > 100 µM
SF-539 CNS
  TGI: > 100 µM
SK-MEL-2 melanoma
  TGI: > 100 µM
SK-MEL-28 melanoma
  TGI: > 100 µM
SK-MEL-5 melanoma
  TGI: > 100 µM
SK-OV-3 ovarian
  TGI: > 100 µM
SN12C renal
  TGI: > 100 µM
SNB-19 CNS
  TGI: > 100 µM
SNB-75 CNS
  TGI: > 100 µM
SNB-78 CNS
  TGI: > 100 µM
SR leukemia
  TGI: > 100 µM
SW-620 colon
  TGI: > 100 µM
TK-10 renal
  TGI: > 100 µM
U251 CNS
  TGI: > 100 µM
UACC-257 melanoma
  TGI: > 100 µM
UACC-62 melanoma
  TGI: > 100 µM
UO-31 renal
  TGI: > 100 µM
XF 498 CNS
  TGI: > 100 µM
